The text below walks through data of a melting point compilation (Tetko et al.; mined from patent text by program, amines drawn as free bases though some values may be those of a salt).

Bounds are passed on as bounds.

The term melting point denotes the temperature, or range, at which the solid turns liquid. In the case of `CC(C)c1cc(C(C)(C)CCP(=O)(O)O)cc(C(C)C)c1O`, the melting point is 179 to 182 °C.
Regarding `CCCCCCCCC[C@]1(C)OO[C@@H]2C[C@H]1CC(=O)[C@@H]2C`, the melting point was 39 °C.
The result for `CCOCCOC(=O)C1=C(C)NC(COC(N)=O)=C(C(=O)OCC)C1c1cccc([N+](=O)[O-])c1` (centres undefined) reads 135 to 138 °C.
Compound `C#CCn1cc(Cl)cnc1=O` gave a melting point of 130 °C.
The result for `CCOC(=O)Nc1ccc2nc(OCC)oc(=O)c2c1` reads 191 to 193 °C.
`COc1ccc(-c2cnc3cc4cnn(CC(=O)O)c4cc3n2)cc1F` returned a melting point above 260 °C.
`OC1CSC(Oc2cccc(-c3cccnc3F)c2)C(O)C1O` (centres undefined) yielded a melting point of 160 °C.
Compound `N#CCCCCCNC(N)=S` showed a melting point of 69 to 71 °C.
For `Oc1ccc2c(c1)[C@H](O)[C@H](Cc1cccnc1)CO2` (relative stereo), the melting point lay in the range of 144 to 147 °C.
In turn, `CCCCC1(CCCC)CS(=O)(=O)c2ccc(N(C)C)cc2[C@@H](c2ccc(OCc3ccc(C(=O)O)cc3)cc2)[C@H]1O` came in with a melting point of 156 to 159 °C.
The result for `[N-]=[N+]=NCc1nc2ccccc2n1Cc1ccc(Cl)c(Cl)c1` reads 78 to 80 °C; that for `CC(=O)Nc1cccc2ccc(O)cc12`, 161 to 162 °C; that for `FC(F)(F)c1cccc(Nc2ccccc2-c2n[nH]c(=S)o2)c1`, 211 to 213 °C.
Take `CC[Si](CC)(CC)c1cccc2c1oc1c([Si](CC)(CC)CC)cccc12`: the melting point was in the range of 59 to 61 °C.
The result for `CNc1ncnc2c1ncn2/C=C/c1cc(NC(=O)c2cccc(C(F)(F)F)c2)ccc1C` reads 201 °C; that for `CC(=O)Oc1ccccc1C(=O)Oc1ccc(CO[N+](=O)[O-])cc1`, 86 to 88 °C.
For the compound `CCOc1c(C)c(N2CCN(c3ccc(OC)cc3)CC2)c(C)c2c1OC(C)C2` (centres undefined), the melting point lay within 106 to 108 °C.
Consider `COc1ccc(C)cc1NC(=O)Nc1ccc(N2CCN(C(=O)Nc3ccc(NC(C)=O)cc3Cl)CC2)cc1`, for which the melting point lay in the range of 155 to 157 °C.
In the case of `Cc1ccc(S(=O)(=O)Nc2ccccc2CCC(=O)c2cnc3sc(C)c(C)n23)cc1`, the melting point was in the range of 168 to 169 °C.
With `CCCCCCC/C=C/C(=O)NC1CCCCC1`, the melting point fell in the range of 94 to 96 °C.
With `CC1C(=CO)C(=O)c2c(O)cc(OCCCCc3ccccc3)cc2N1C=O` (centres undefined), the melting point lay in the range of 101 to 103 °C.
`CCNC(=S)n1nc(Oc2ncc(C(F)(F)F)cc2Cl)cc1C` registered a melting point of 74 to 75 °C.
As for `CCCCOc1ccc(C(=O)Nc2ccc3cc(CN4CCCC4C)cnc3c2C)cc1` (centres undefined), the melting point lay within 153 to 156 °C.
`CSc1ncc(Oc2cnccc2C)c(=O)[nH]1`: the melting point was in the range of 162 to 164 °C.
For `CC(C)(C)CNc1cc(Cl)nc(NCC(C)(C)C)n1`, the melting point was in the range of 95 to 98 °C.
On to `COc1c(C)c2c(c(O)c1C/C=C(\C)C1CCCC1C(=O)O)C(=O)OC2` (centres undefined), for which the melting point is 157 to 158 °C.
The result for `CCOC(=O)Cn1nnnc1Cl` reads 57 to 60 °C; that for `COC(=O)CCc1ncc2c(c1C(=O)OC)CCO2`, 80 to 81 °C; that for `CCCCCCCCCCCCCCCCCC(=O)CC(=O)OC`, 52 to 54 °C.
In the case of `O=c1oc(-c2ccccc2)cc(O)c1C(CC1CCCC1)SC1CCCCC1` (centres undefined) it was 157 to 160 °C; in that of `CC(Cl)(Cl)C(NC(=O)c1cccs1)NC(=NC#N)Nc1ccc(Cl)nc1` (centres undefined), 201 to 203 °C; in that of `CC(C)CCOC(=O)c1cc2c([nH]c3ccccc32)c(-c2ccc3c(n2)C(=O)C(NC(=O)CCl)=CC3=O)n1`, 280 to 284 °C.
In the case of `CCCCCCCCCCCCCCCCCC(=O)NCC(O)C(C)(O)CCCC(C)CCCC(C)CCCC(C)C` (centres undefined) it was 47 to 48 °C; in that of `CCCNc1ncnc2c1ncn2CCCN1CCC(COc2ccccc2)CC1`, 62 to 63 °C; in that of `O=C(Cc1cccc(C(F)(F)F)c1)Nc1c(Br)cccc1Br`, 169 to 170 °C.
As for `Cc1c(C)c2c(c(C)c1N)CC(C)(CN1CCC(Nc3ccccc3)CC1)O2` (centres undefined), the melting point lay within 116 to 118 °C.
In the case of `COc1cc(C=CC(=O)OC2C=C(C)C(=O)CC(C)(C)C2O)ccc1O` (centres undefined) it was 142 °C.
Turning to `Nc1cc(=O)n(Cc2ccccc2F)[nH]1`, the melting point turned out to be 146 °C.
Regarding `O=C(c1ccccc1)c1cc([N+](=O)[O-])ccc1O`, the melting point was in the range of 125 to 126 °C.
The result for `CNC[C@@H]1CN(c2nc3c(cc2F)c(=O)c(C(=O)O)cn3C2CC2)C[C@@H]1F` (relative stereo) reads 230 to 240 °C.
In the case of `C=CCN(CC=C)C(=O)C(C#N)(CC)c1ccccc1` (centres undefined) it was 33 to 35 °C; in that of `Cc1c(-c2ccc(Cl)cc2)n(Cc2ccc(OCCN3CCCCC3)cc2)c2ccc(O)cc12`, 161 to 164 °C.
In the case of `O=C(Nc1ccc(C(F)(F)F)cc1)C1CC(c2ccc(F)cc2)N(c2ccc(Cl)cc2)N1` (centres undefined) it was 50 to 55 °C.
`Fc1ccc2c(c1F)C(C#CC1CC1)(C(F)(F)F)NC(=S)N2` (racemic) yielded a melting point of 241 to 243 °C.
The result for `O=C(Cc1ccc(Oc2ccccc2)cc1)NC1(C(=O)O)Cc2ccc(-c3ccc(Cl)cc3)cc2C1` (centres undefined) reads 227 to 228 °C; that for `C1=C(/C=C/c2ccccc2)CCN(Cc2n[nH]c3ccccc23)C1`, 207 to 209 °C; that for `O=C(O)C1CN(Cc2ccc(OCc3ccc(Cl)c(Cl)c3)cc2)C1`, 166 °C.
With `COC(=O)c1ccc(CC(C)NCC(O)c2ccc(O)c(CO)c2)cc1` (centres undefined), the melting point was in the range of 118 to 120 °C.
As to `NC1(C2CCCC2=O)OCCO1` (centres undefined), the melting point lay within 134 to 136 °C.
The result for `O=C(Nc1cccc(F)c1)c1ccc(CN2C(=O)C3(COc4cc5c(cc43)CCO5)c3ccccc32)cc1` (centres undefined) reads above 250 °C; that for `c1ccc(-c2ccccc2OCCCCCCOc2ccccc2-c2ccccc2)cc1`, 92 to 95 °C.
Consider `OC(=S)c1ccc2cccnc2c1O`, for which the melting point was 174 to 175 °C.
As for `COCOc1cc(OC)c(OCOC)c(CCO)c1OC`, the melting point was in the range of 121 to 123 °C.
In turn, `C=Cc1ccc(CSc2ccccc2C(=O)O)cc1` registered a melting point of 207 to 209 °C.
Regarding `Cc1c(-c2ccc(Cl)cc2)c2cc(OC(C)(C)C(=O)O)ccc2n1C`, the melting point was 148 to 149 °C.
As for `COC1=C(Br)CO/C1=C\c1cccc2ccccc12`, the melting point fell in the range of 143 to 148 °C.
As to `CC1COCc2nc3c(N)nc4cc(O)ccc4c3n21` (centres undefined), the melting point was above 250 °C.
Compound `CCOC(=O)c1n[nH]c2ncc(I)cc2c1=O` yielded a melting point of 238 to 242 °C.
Regarding `CC(=O)c1ccc(-c2ccccc2[N+](=O)[O-])cc1`, the melting point is 106 to 109 °C.
Consider `CCCCCc1c(C(C)C)nc(C(C)C)c(CO)c1-c1cccc(OC)c1`, for which the melting point was 65 to 66 °C.
Regarding `O=C(c1ccc(NC(=O)C(O)(C(F)(F)F)C(F)(F)F)cc1)c1ccccn1`, the melting point fell in the range of 197 to 200 °C.
`O=C1NC(=O)C(Cc2ccc3oc(Cc4ccc(O)cc4)nc3c2)S1` (centres undefined) returned a melting point of 201 to 204 °C.
In the case of `Cc1nc(-c2nc(C)c(-c3ccnc(Nc4cc(Cl)c(N5CCOCC5)c(Cl)c4)n3)s2)cs1` it was above 300 °C; in that of `CC(=O)[NH+]([O-])C[C@@H]1CN(c2ccc(N3CCN(S(=O)(=O)c4ccccc4C#N)CC3)c(F)c2)C(=O)O1` (some centres undefined), 190 to 192 °C.
With `COC(=O)COc1ccc(OCC(=O)OC)cc1`, the melting point lay in the range of 96 to 98 °C.
As for `O=c1c2c[nH]c3c(c-2nn1-c1ccc(Cl)cc1)CCC3`, the melting point is above 350 °C.
For `Cc1nc2c3c(c(C(=O)O)cc2n1C)CCC(c1ccccc1)O3` (centres undefined), the melting point is 323 to 326 °C.
For `Cc1cc(F)ccc1-c1ccc(S(=O)(=O)N2c3ccccc3CC2C(=O)NCCOc2ccc(C(=O)O)c(F)c2)cc1` (centres undefined), the melting point was in the range of 109 to 118 °C.
The result for `CC(C)Oc1cc(CCC(=O)NS(=O)(=O)c2ccc(C(F)(F)F)cc2)n(Cc2ccc(Cl)cc2Cl)n1` reads 167 to 169 °C; that for `CCc1cn(C2CC(N=[N+]=[N-])C(CO)O2)c(=O)[nH]c1=O` (centres undefined), 118 to 120 °C; that for `Nc1cc(C(F)(F)F)cc2c(Cl)ccnc12`, 57 to 58 °C.
The compound `COc1ccc2oc(-c3nc4c(s3)NCCCC4)cc2c1` yielded a melting point of 121 to 125 °C.
Consider `Cn1cncc1C(O)(c1ccc(Cl)cc1)c1ccc2c(c1)C(c1cccc(Cl)c1)Nc1nnnn1-2` (centres undefined), for which the melting point worked out at 212 °C.
In the case of `CC1(C)OC(=O)Nc2ccc(-c3ccc(C#N)o3)cc21`, the melting point fell in the range of 257 to 260 °C.
The result for `Cc1cccc(NC(=O)NCC(=O)N(CC(=O)N(C)c2ccc(Cl)cc2)c2ccccc2)c1` reads 160 °C.
The result for `O=C(O)c1cccc(-n2cc(-c3ccccc3F)cn2)c1` reads 225 to 226 °C; that for `CC(=O)n1ncc2c(O)cccc21`, 140 to 142 °C; that for `CCn1nc2c(N)nc3ccccc3c2c1CCCCNS(C)(=O)=O`, 192 to 194 °C.
In the case of `CC(C)(C)c1cc(=O)o[nH]1` it was 110 to 115 °C.
For the compound `CC1(C)CN=C2N(C1)c1ccc(C#N)cc1C21OCCCO1`, the melting point lay within 178 to 184 °C.
Consider `CCOC(=O)c1cn(C2CC2)c2nc(N3CCC(NCC(C)=O)C3)c(F)cc2c1=O` (centres undefined), for which the melting point lay within 203 to 204 °C.
In the case of `Clc1nc(SCc2ccccc2)ncc1Br`, the melting point fell in the range of 56 to 57 °C.
On to `C=CCNc1nc(NCCC)c2cc([N+](=O)[O-])ccc2n1`, for which the melting point was 211 to 212 °C.
`CCOC(=O)CCN1C(=O)C(NC(=O)OCc2ccccc2)N=C(c2ccccc2)c2ccccc21` (centres undefined) displayed a melting point of 57 to 59 °C.
The compound `O=C(O)c1cc(Oc2cc(F)c(C(F)(F)F)c(Cl)c2)ccc1Br` registered a melting point of 113 to 117 °C.
`CC1CCN(c2c(-c3c(F)cc(F)cc3F)c(Cl)nc3nc(S)nn23)CC1` yielded a melting point of 194 °C.
With `O=C(O)c1cnc(Nc2cccc(C(F)(F)F)c2)[nH]c1=O`, the melting point lay in the range of 252 to 254 °C.
In the case of `C=CCOc1ccc2oc(C(=O)c3ccc(F)cc3)c(C)c2c1` it was 80 to 82 °C; in that of `O=C(O)Cc1ccc(NC(=O)C(COc2ccc(Cl)cc2)NS(=O)(=O)c2ccc(I)cc2)cc1` (racemic), 196 to 198 °C.
